Source: patent publication US12558428B2, “Heterobifunctional compounds and their use in treating disease” (Halda Therapeutics OpCo, Inc., priority 2024, dated 2026)

Each compound was assayed on T-Rex 293 cells lacking increased expression of estrogen receptor alpha protein (assay: Cellular growth inhibition assay, T-Rex 293 cells, (−) doxycycline). Settings: T-REx-293, 72 h, Table 7-A; T-Rex 293 cells without doxycycline (lacking increased ERα expression); 72 hours; CellTiter-Glo; read-out: (−) Dox GI50.
Type: cell-based
In short: (§1)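 Cells of an inducible ERα-expressing T-Rex 293 clone are seeded in charcoal-dextran FBS medium with or without 3 ng/mL doxycycline, then treated after 24 h with compound dilutions (0.5% DMSO) for 72 h. Growth inhibition is measured by CellTiter-Glo luminescence and expressed as GI50.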

| Structure (SMILES) | GI50 |
| --- | --- |
| Cc1sc2c(c1C)C(c1ccc(N3CCN(CC4CCN(c5ccc([C@@H]6c7ccc(O)cc7CC[C@@H]6c6ccccc6)cc5)CC4)CC3)cc1)=N[C@H](Cn1cccn1)c1nnc(C)n1-2 [III-216] | > 2500 nM |
| Cc1sc2c(c1C)C(c1ccc(N3CCC(O)(CN4CCN(c5ccc([C@@H]6c7ccc(O)cc7CC[C@@H]6c6ccccc6)nn5)CC4)CC3)cc1)=N[C@@H](C)c1nnc(C)n1-2 [III-217] | 50 to 500 nM |
| Cc1sc2c(c1C)C(c1ccc(N3CCC(O)(CN4CCN(c5ccc([C@H]6c7ccc(O)cc7CC[C@H]6c6ccccc6)nn5)CC4)CC3)cc1)=N[C@@H](C)c1nnc(C)n1-2 [III-218] | 50 to 500 nM |
| Cc1sc2c(c1C)C(c1ccc(N3CC(CN4CC(CN5CC(c6ccc([C@@H]7c8ccc(O)cc8CC[C@@H]7c7ccccc7)cc6)C5)C4)C3)cc1)=N[C@@H](C)c1nnc(C)n1-2 [III-219] | 50 to 500 nM |
| Cc1sc2c(c1C)C(c1ccc(N3CC(CN4CC(CC5CN(c6ccc([C@@H]7c8ccc(O)cc8CC[C@@H]7c7ccccc7)cc6)C5)C4)C3)cc1)=N[C@@H](C)c1nnc(C)n1-2 [III-220] | 50 to 500 nM |
| Cc1sc2c(c1C)C(c1ccc(N3CC4(CCC(F)(CN5CCC(c6ccc([C@@H]7c8ccc(O)cc8CC[C@@H]7c7ccccc7)cc6)CC5)CC4)C3)cc1)=N[C@@H](C)c1nnc(C)n1-2 [III-222] | > 2500 nM |
| Cc1sc2c(c1C)C(c1ccc(N3CCC(O)(CN4CCN(c5ccc([C@@H]6c7ccc(O)cc7CC[C@@H]6c6ccccc6)nn5)CC4)CC3)cc1)=N[C@H](Cc1ncco1)c1nnc(C)n1-2 [III-223] | 500 to 2500 nM |
| Cc1sc2c(c1C)C(c1ccc(N3CCC(O)(CN4CCN(c5ccc([C@H]6c7ccc(O)cc7CC[C@H]6c6ccccc6)nn5)CC4)CC3)cc1)=N[C@H](Cc1ncco1)c1nnc(C)n1-2 [III-224] | > 2500 nM |
| Cc1sc2c(c1C)C(c1ccc(N3CCC(O)(CN4CCN(c5ccc([C@H]6c7ccc(O)cc7CC[C@H]6c6ccccc6)nn5)CC4)CC3)cc1)=N[C@@H](Cc1ncco1)c1nnc(C)n1-2 [III-225] | 50 to 500 nM |
| Cc1sc2c(c1C)C(c1ccc(N3CCC(O)(CN4CCN(c5ccc([C@@H]6c7ccc(O)cc7CC[C@@H]6c6ccccc6)nn5)CC4)CC3)cc1)=N[C@@H](Cc1ncco1)c1nnc(C)n1-2 [III-226] | 50 to 500 nM |
| Cc1sc2c(c1C)C(c1ccc(N3CC4(CCC(F)(CN5CCC(c6ccc([C@@H]7c8ccc(O)cc8CC[C@@H]7c7ccccc7)cc6)CC5)CC4)C3)cc1)=N[C@@H](Cc1ncco1)c1nnc(C)n1-2 [III-227] | > 2500 nM |
| Cc1sc2c(c1C)C(c1ccc(C3CCC4(CCN(CN5CC(c6ccc([C@@H]7c8ccc(O)cc8CC[C@@H]7c7ccccc7)cc6)C5)CC4)C3)cc1)=N[C@@H](C)c1nnc(C)n1-2 (stereo partly drawn) [III-228] | 500 to 2500 nM |
| Cc1sc2c(c1C)C(c1ccc(N3CC4(CCC(CN5CCC(c6ccc([C@@H]7c8ccc(O)cc8CC[C@@H]7c7ccccc7)cc6)CC5)CC4)C3)cc1)=N[C@@H](C)c1nnc(C)n1-2 [III-229] | 500 to 2500 nM |

These compounds were tested on T-Rex 293 cells having increased expression of estrogen receptor alpha protein (assay: Cellular growth inhibition assay, T-Rex 293 cells, (+) doxycycline). Settings: T-REx-293, 72 h, Table 7-A; T-Rex 293 cells with doxycycline (increased ERα expression); 72 hours; CellTiter-Glo; read-out: (+) Dox GI50.
Type: cell-based
In short: as §1

| Structure (SMILES) | GI50 |
| --- | --- |
| Cc1sc2c(c1C)C(c1ccc(N3CCN(CC4CCN(c5ccc([C@@H]6c7ccc(O)cc7CC[C@@H]6c6ccccc6)cc5)CC4)CC3)cc1)=N[C@H](Cn1cccn1)c1nnc(C)n1-2 [III-216] | > 2500 nM |
| Cc1sc2c(c1C)C(c1ccc(N3CCC(O)(CN4CCN(c5ccc([C@@H]6c7ccc(O)cc7CC[C@@H]6c6ccccc6)nn5)CC4)CC3)cc1)=N[C@@H](C)c1nnc(C)n1-2 [III-217] | < 50 nM |
| Cc1sc2c(c1C)C(c1ccc(N3CCC(O)(CN4CCN(c5ccc([C@H]6c7ccc(O)cc7CC[C@H]6c6ccccc6)nn5)CC4)CC3)cc1)=N[C@@H](C)c1nnc(C)n1-2 [III-218] | < 50 nM |
| Cc1sc2c(c1C)C(c1ccc(N3CC(CN4CC(CN5CC(c6ccc([C@@H]7c8ccc(O)cc8CC[C@@H]7c7ccccc7)cc6)C5)C4)C3)cc1)=N[C@@H](C)c1nnc(C)n1-2 [III-219] | < 50 nM |
| Cc1sc2c(c1C)C(c1ccc(N3CC(CN4CC(CC5CN(c6ccc([C@@H]7c8ccc(O)cc8CC[C@@H]7c7ccccc7)cc6)C5)C4)C3)cc1)=N[C@@H](C)c1nnc(C)n1-2 [III-220] | < 50 nM |
| Cc1sc2c(c1C)C(c1ccc(N3CC4(CCC(F)(CN5CCC(c6ccc([C@@H]7c8ccc(O)cc8CC[C@@H]7c7ccccc7)cc6)CC5)CC4)C3)cc1)=N[C@@H](C)c1nnc(C)n1-2 [III-222] | < 50 nM |
| Cc1sc2c(c1C)C(c1ccc(N3CCC(O)(CN4CCN(c5ccc([C@@H]6c7ccc(O)cc7CC[C@@H]6c6ccccc6)nn5)CC4)CC3)cc1)=N[C@H](Cc1ncco1)c1nnc(C)n1-2 [III-223] | 500 to 2500 nM |
| Cc1sc2c(c1C)C(c1ccc(N3CCC(O)(CN4CCN(c5ccc([C@H]6c7ccc(O)cc7CC[C@H]6c6ccccc6)nn5)CC4)CC3)cc1)=N[C@H](Cc1ncco1)c1nnc(C)n1-2 [III-224] | > 2500 nM |
| Cc1sc2c(c1C)C(c1ccc(N3CCC(O)(CN4CCN(c5ccc([C@H]6c7ccc(O)cc7CC[C@H]6c6ccccc6)nn5)CC4)CC3)cc1)=N[C@@H](Cc1ncco1)c1nnc(C)n1-2 [III-225] | < 50 nM |
| Cc1sc2c(c1C)C(c1ccc(N3CCC(O)(CN4CCN(c5ccc([C@@H]6c7ccc(O)cc7CC[C@@H]6c6ccccc6)nn5)CC4)CC3)cc1)=N[C@@H](Cc1ncco1)c1nnc(C)n1-2 [III-226] | < 50 nM |
| Cc1sc2c(c1C)C(c1ccc(N3CC4(CCC(F)(CN5CCC(c6ccc([C@@H]7c8ccc(O)cc8CC[C@@H]7c7ccccc7)cc6)CC5)CC4)C3)cc1)=N[C@@H](Cc1ncco1)c1nnc(C)n1-2 [III-227] | < 50 nM |
| Cc1sc2c(c1C)C(c1ccc(C3CCC4(CCN(CN5CC(c6ccc([C@@H]7c8ccc(O)cc8CC[C@@H]7c7ccccc7)cc6)C5)CC4)C3)cc1)=N[C@@H](C)c1nnc(C)n1-2 (stereo partly drawn) [III-228] | < 50 nM |
| Cc1sc2c(c1C)C(c1ccc(N3CC4(CCC(CN5CCC(c6ccc([C@@H]7c8ccc(O)cc8CC[C@@H]7c7ccccc7)cc6)CC5)CC4)C3)cc1)=N[C@@H](C)c1nnc(C)n1-2 [III-229] | < 50 nM |

The compounds below were run on MCF7 cells (ATCC #HTB-22) (assay: Cellular growth inhibition assay, MCF7 cells purchased from ATCC). Settings: Homo sapiens, MCF7, 144 h, Table 8-A; MCF7 cells purchased from ATCC; six days; CellTiter-Glo; read-out: GI50.
Type: cell-based
In short: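 GI50 values come from a four-parameter fit of CellTiter-Glo 2.0 luminescence after six days of compound exposure at 37° C. Seeding density depended on the source: 225 cells/well for ECACC MCF7, 1,500 for ATCC. Medium was RPMI 1640 with 10% FBS and 0.2 U/ml insulin.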

| Structure (SMILES) | GI50 |
| --- | --- |
| Cc1sc2c(c1C)C(c1ccc(N3CCN(CC4CCN(c5ccc([C@@H]6c7ccc(O)cc7CC[C@@H]6c6ccccc6)cc5)CC4)CC3)cc1)=N[C@H](Cn1cccn1)c1nnc(C)n1-2 [III-216] | 50 to 500 nM |
| Cc1sc2c(c1C)C(c1ccc(N3CCC(O)(CN4CCN(c5ccc([C@@H]6c7ccc(O)cc7CC[C@@H]6c6ccccc6)nn5)CC4)CC3)cc1)=N[C@@H](C)c1nnc(C)n1-2 [III-217] | 50 to 500 nM |
| Cc1sc2c(c1C)C(c1ccc(N3CCC(O)(CN4CCN(c5ccc([C@H]6c7ccc(O)cc7CC[C@H]6c6ccccc6)nn5)CC4)CC3)cc1)=N[C@@H](C)c1nnc(C)n1-2 [III-218] | 50 to 500 nM |
| Cc1sc2c(c1C)C(c1ccc(N3CC(CN4CC(CN5CC(c6ccc([C@@H]7c8ccc(O)cc8CC[C@@H]7c7ccccc7)cc6)C5)C4)C3)cc1)=N[C@@H](C)c1nnc(C)n1-2 [III-219] | 50 to 500 nM |
| Cc1sc2c(c1C)C(c1ccc(N3CC(CN4CC(CC5CN(c6ccc([C@@H]7c8ccc(O)cc8CC[C@@H]7c7ccccc7)cc6)C5)C4)C3)cc1)=N[C@@H](C)c1nnc(C)n1-2 [III-220] | 50 to 500 nM |
| Cc1sc2c(c1C)C(c1ccc(N3CC4(CCC(F)(CN5CCC(c6ccc([C@@H]7c8ccc(O)cc8CC[C@@H]7c7ccccc7)cc6)CC5)CC4)C3)cc1)=N[C@@H](C)c1nnc(C)n1-2 [III-222] | 50 to 500 nM |
| Cc1sc2c(c1C)C(c1ccc(N3CCC(O)(CN4CCN(c5ccc([C@@H]6c7ccc(O)cc7CC[C@@H]6c6ccccc6)nn5)CC4)CC3)cc1)=N[C@H](Cc1ncco1)c1nnc(C)n1-2 [III-223] | 500 to 2500 nM |
| Cc1sc2c(c1C)C(c1ccc(N3CCC(O)(CN4CCN(c5ccc([C@H]6c7ccc(O)cc7CC[C@H]6c6ccccc6)nn5)CC4)CC3)cc1)=N[C@H](Cc1ncco1)c1nnc(C)n1-2 [III-224] | 50 to 500 nM |
| Cc1sc2c(c1C)C(c1ccc(N3CCC(O)(CN4CCN(c5ccc([C@H]6c7ccc(O)cc7CC[C@H]6c6ccccc6)nn5)CC4)CC3)cc1)=N[C@@H](Cc1ncco1)c1nnc(C)n1-2 [III-225] | 50 to 500 nM |
| Cc1sc2c(c1C)C(c1ccc(N3CCC(O)(CN4CCN(c5ccc([C@@H]6c7ccc(O)cc7CC[C@@H]6c6ccccc6)nn5)CC4)CC3)cc1)=N[C@@H](Cc1ncco1)c1nnc(C)n1-2 [III-226] | < 50 nM |
| Cc1sc2c(c1C)C(c1ccc(N3CC4(CCC(F)(CN5CCC(c6ccc([C@@H]7c8ccc(O)cc8CC[C@@H]7c7ccccc7)cc6)CC5)CC4)C3)cc1)=N[C@@H](Cc1ncco1)c1nnc(C)n1-2 [III-227] | 50 to 500 nM |
| Cc1sc2c(c1C)C(c1ccc(C3CCC4(CCN(CN5CC(c6ccc([C@@H]7c8ccc(O)cc8CC[C@@H]7c7ccccc7)cc6)C5)CC4)C3)cc1)=N[C@@H](C)c1nnc(C)n1-2 (stereo partly drawn) [III-228] | 50 to 500 nM |
| Cc1sc2c(c1C)C(c1ccc(N3CC4(CCC(CN5CCC(c6ccc([C@@H]7c8ccc(O)cc8CC[C@@H]7c7ccccc7)cc6)CC5)CC4)C3)cc1)=N[C@@H](C)c1nnc(C)n1-2 [III-229] | 50 to 500 nM |
